Assay results: patent publication US7547680B2, “Benzimidazole derivatives and medical uses thereof” (Kissei Pharmaceuticals, Co., Ltd., priority 2004, dated 2009)

Tests used:
human CNT2 = target: T1, human CNT2 (Homo sapiens, UniProt O43868, I160M/P22L/S45C); assay: Inhibitory activity against uptake of adenosine through human CNT2; assay type: cell-based; conditions: COS-7 cells transiently expressing human CNT2; adenosine 10 μM; NBMPR 10 μM; incubation 30 minutes at 37° C.
T1 construct: expressed in transfected cells; host or cells: COS-7 cells (RIKEN CELL BANK RCB0539), transient lipofection of pCI-neo plasmid
T1 sequence (O43868 1-658 P22L/S45C/I160M): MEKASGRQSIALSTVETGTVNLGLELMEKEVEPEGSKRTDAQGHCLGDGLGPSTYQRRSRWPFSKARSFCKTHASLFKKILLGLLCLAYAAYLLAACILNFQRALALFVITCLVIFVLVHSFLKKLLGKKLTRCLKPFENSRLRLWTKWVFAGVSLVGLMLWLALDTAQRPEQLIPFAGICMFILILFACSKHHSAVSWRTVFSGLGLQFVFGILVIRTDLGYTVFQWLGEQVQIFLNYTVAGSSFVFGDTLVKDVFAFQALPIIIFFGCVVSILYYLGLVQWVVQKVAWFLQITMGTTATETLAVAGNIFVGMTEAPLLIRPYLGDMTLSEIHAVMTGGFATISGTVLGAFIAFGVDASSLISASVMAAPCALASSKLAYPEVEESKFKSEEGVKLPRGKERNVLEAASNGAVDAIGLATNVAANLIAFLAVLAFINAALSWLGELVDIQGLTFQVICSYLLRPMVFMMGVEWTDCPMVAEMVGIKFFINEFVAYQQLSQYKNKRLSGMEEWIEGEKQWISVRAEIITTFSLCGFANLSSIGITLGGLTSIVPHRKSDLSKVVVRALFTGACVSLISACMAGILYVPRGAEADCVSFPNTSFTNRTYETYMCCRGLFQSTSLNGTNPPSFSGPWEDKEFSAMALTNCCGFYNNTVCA
Experimental: Human CNT2 cDNA was obtained by PCR amplification of human kidney cDNA (CLONTECH). PCR reaction solution contained 1 μL cDNA, 2 units Platinum taq DNA polymerase high fidelity (Invitrogen), 1 μM primers (Forward: 5′-AGGAGCCAGAGGGAATCAAT-3′, Reverse: 5′-ACATCTTGGTGAGTGAGTTG-3′). Amplifications for 1 cycle at 94° C. for 2 minutes, 32 cycles at 94° C. for 30 seconds, 58° C. for 30 seconds and 68° C. for 3 minutes were performed and PCR products were ligated into PCR-II-TOPO vector (Invitrogen). PCR reaction was performed with primers containing restriction enzyme sites and the constructed plasmid as a template. PCR reaction solution contained 100 ng plasmid, 2 units Pyrobest DNA polymerase (Takara), 330 nM primers (Forward: 5′-CCGCTCGAGAGGAGCCAGAGGGAATCAAT-3′, Reverse: 5′-CGTCTAGAACATCTTGGTGAGTGAGTTG-3′). Amplifications for 1 cycle at 95° C. for 3 minutes, 15 cycles at 98° C. for 10 seconds, 60° C. for 30 seconds and 72° C. for 1 minute and 1 cycle at 72° C. for 7 minutes were performed, and the PCR products were ligated into PCI-neo mammalian expression vector (Promega). The amino acid sequence of cloned human CNT2 was substituted at P22L (codon, CCG to CTG), S45C (codon, AGC to TGC) and I160M (codon, ATA to ATG) compared to a reported amino acid sequence for human CNT2 (NCBI Accession No. AAC51930).
Expression plasmid of human CNT2 was transfected into COS-7 cells (RIKEN CELL BANK RCB0539) by lipofection method. LIPOFECTAMINE 2000 (Invitrogen) was used as a lipofection reagent. COS-7 cells were diluted in D-MEM (Invitrogen) containing 10% fetal calf serum (Sanko Junyaku) at 5×10^5/1 mL, and seeded into collagen-coated 96-well plates (IWAKI) at 100 μL/well and cultured at 37° C. for 2 hours with 5% CO2 condition. For each well, 0.6 μL of LIPOFECTAMINE 2000 (Invitrogen) was diluted in 25 μL of OPTI-MEM (Invitrogen), and incubated for 7 minutes at room temperature (hereinafter referred to as Lipo 2000-OPTI). For each well, 0.3 μg of plasmid was diluted in 25 μL of OPTI-MEM (Invitrogen), and the solution was added to the Lipo 2000-OPTI and mixed gently and incubated for 30 minutes at room temperature, and was transferred 50 μL for each well to culture medium. The cells were incubated at 37° C. with 5% CO2 condition for 2 days, and used for the uptake assays.
An Uptake buffer was prepared by addition of a mixture of non-radioisotope labeled (Sigma) and ^14C-labeled (Amersham Biosciences) adenosine at the final concentration of 10 μM into a buffer, pH 7.4, containing 140 mM sodium chloride, 2 mM potassium chloride, 1 mM calcium chloride, 1 mM magnesium chloride, 10 mM HEPES 2-[4-(2-hydroxyethyl)-1-piperazinyl]ethane sulfonic acid, 5 mM tris(hydroxymethyl)aminomethane and 5 mM glucose. For measurement of basal uptake, Basal uptake measurement buffer, which contained 140 mM choline chloride instead of sodium chloride was prepared. […]. After removing culture medium of human CNT2 transiently expressing cells, Pretreatment buffer (Basal uptake measurement buffer without adenosine and glucose) was added to wells at 200 μL/well and incubated at 37° C. for 10 minutes. After repeating the same step again, Pretreatment buffer was removed and Measurement buffers and Basal uptake measurement buffer were added at 75 μL/well and incubated at 37° C. After incubation for 30 minutes, Measurement buffers and Basal uptake measurement buffer were removed, and the cells were washed with Washing buffer (Basal uptake measurement buffer with non-radioisotope labeled adenosine at 10 μM) at 200 μL/well twice. The cells were solubilized with 0.2 mol/L sodium hydroxide at 75 μL/well, and the cell lysates were transferred into PicoPlates (Perkin Elmer). After mixing with 150 μL of MicroScint-40 (Perkin Elmer), radioactivity was measured by means of scintillation counter (Perkin Elmer). […]

[1] = Effects of CNT2 inhibitors on plasma uric acid level (purine tolerance test in rats); assay type: in vivo; conditions: Male SD-IGS rats; oxonic acid 100 mg/kg s.c.; purine mix 50 mg/kg and test compound 10 mg/kg orally; blood after 1 hour; control group = 100%; Example 28 by HPLC, Examples 89 and 90 by phosphotungstic acid method
Experimental: Male SD-IGS rats (5 weeks old) which were fasted overnight, were subcutaneously treated with oxonic acid (Aldrich; 100 mg/kg), and after 1 hour, purine mix (Adenosine:Inosine:Guanosine=1:1:1 (Adenosine (Sigma), Inosine (WAKO), Guanosine (ICN); 50 mg/kg) and test compounds (10 mg/kg) were orally administrated simultaneously. A control group was treated with oxonic acid and the purine mix, and a group administrated only oxonic acid represented endogenous plasma uric acid value. After 1 hour, blood was collected from the abdominal aorta under ether anesthesia, and the plasma was collected with Venoject II vacuum blood collecting tube (Terumo, VP-FH052). According to the method described in Journal of Chromatography B, Vol. 744 (2000), pp. 129-138, plasma uric acid level in a compound of Example 28 was measured by using HPLC method mentioned below. Plasma uric acid levels in compounds of Examples 89 and 90 were measured by phosphotungstic acid method. Uric acid-Test Wako (WAKO) was used as a measurement reagent. As there is no difference of uric acid values between the HPLC method and the phosphotungstic acid method, uric acid value can be measured by either of both methods (for example, see the above Management guideline, pp. 18-19). The difference between plasma uric acid value in each study group and endogenous plasma uric acid value was calculated on the basis of 100% in the control group.
Theophylline (10 μg) as an internal standard substance was added to 0.1 mL of plasma collected with the above method, and then the samples were deproteinized with 1 mL of methanol. After the samples were centrifuged, the methanol layers were evaporated to dryness under a stream of nitrogen. […] Plasma uric acid concentration was determined by HPLC method according to the condition described below. […]
• Column: Inertsil ODS-2 (4.6×250 mm) • Mobile phase • A solution: acetonitrile • B solution: 10 mM phosphate buffer (pH 3.0) • A linear gradient elution method: A solution 2% to A solution 22% (25 minutes) • Column temperature: 40° C. • Flow rate: 0.5 mL/minute • Detection absorbance: 284 nm

ENT2 = target: T2, ENT2 (Homo sapiens, UniProt Q14542); conditions: ENT2, high concentration of NBMPR; cited from earlier work
T2 sequence (Q14542 1-456): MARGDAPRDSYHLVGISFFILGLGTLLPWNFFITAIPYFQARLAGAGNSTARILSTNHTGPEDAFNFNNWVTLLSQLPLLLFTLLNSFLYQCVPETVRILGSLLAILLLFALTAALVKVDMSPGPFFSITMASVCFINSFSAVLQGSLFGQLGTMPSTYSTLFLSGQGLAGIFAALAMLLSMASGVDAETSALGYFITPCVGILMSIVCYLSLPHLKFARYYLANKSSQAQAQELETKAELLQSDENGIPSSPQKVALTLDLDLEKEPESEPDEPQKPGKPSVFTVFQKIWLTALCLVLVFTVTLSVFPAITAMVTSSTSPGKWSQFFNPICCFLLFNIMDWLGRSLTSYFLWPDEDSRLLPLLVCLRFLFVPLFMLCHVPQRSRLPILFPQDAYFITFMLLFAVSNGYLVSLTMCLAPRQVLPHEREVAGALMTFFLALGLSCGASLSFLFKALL

Structure (SMILES) | IC50 (human CNT2) [nM] | Percentage of increment of plasma uric acid level (%) [1] | IC50 (ENT2) [nM]
OCCCCOc1cc(CNc2nc3ccccc3n2[C@@H]2O[C@H](CO)[C@@H](O)[C@H]2O)ccc1-c1ccccc1 [Example 28, 2-[3-(4-Hydroxybutoxy)-4-phenylbenzylamino]-1-(β-D-ribofuranosyl)-1H-benzimidazole] | 46 | 15.2% (p < 0.01) | –
CCOc1ccc(CNc2nc3ccccc3n2[C@@H]2O[C@H](CO)[C@@H](O)[C@H]2O)cc1OCCCCO [Example 34, 2-[4-Ethoxy-3-(4-hydroxybutoxy)benzylamino]-1-(β-D-ribofuranosyl)-1H-benzimidazole] | 104 | – | –
CCCOc1ccc(CNc2nc3ccccc3n2[C@@H]2O[C@H](CO)[C@@H](O)[C@H]2O)cc1OCCCCO [Example 36] | 150 | – | –
CCCCOc1ccc(CNc2nc3ccccc3n2[C@@H]2O[C@H](CO)[C@@H](O)[C@H]2O)cc1OCCCCO [Example 37] | 213 | – | –
NCCCOc1cc(CNc2nc3ccccc3n2[C@@H]2O[C@H](CO)[C@@H](O)[C@H]2O)ccc1-c1ccccc1 [Example 51, 2-[3-(3-Aminopropoxy)-4-phenylbenzylamino]-1-(β-D-ribofuranosyl)-1H-benzimidazole] | 9 | – | –
NC(=O)C1CCN(CCCOc2cccc(CNc3nc4ccccc4n3[C@@H]3O[C@H](CO)[C@@H](O)[C@H]3O)c2)CC1 [Example 89, 2-{3-[3-(4-Carbamoylpiperidin-1-yl)propoxy]benzylamino}-1-(β-D-ribofuranosyl)-1H-benzimidazole] | 55 | 24.9% (p < 0.01) | –
CN(C)CCCOc1cccc(CNc2nc3ccccc3n2[C@@H]2O[C@H](CO)[C@@H](O)[C@H]2O)c1 [Example 90] | 184 | 45.6% (p < 0.05) | –
C[N+](C)(CCO)CCCOc1cccc(CNc2nc3ccccc3n2[C@@H]2O[C@H](CO)[C@@H](O)[C@H]2O)c1 [Example 93] | 172 | – | –
O=[N+]([O-])c1ccc(CSc2ncnc3c2ncn3C2OC(CO)C(O)C2O)cc1 (stereo not drawn) [NBMPR, nitrobenzylthioinosine] | – | – | > 1000
